The source of these data is article PMC9020721, “Characterization of BLUF-photoreceptors present in Acinetobacter nosocomialis” (PLoS ONE, 2022).

Assay [1] addresses T1, AnBLUF65 (Acinetobacter nosocomialis, UniProt A0AA36P071).
T1 construct: gene ANICBIBUN_09924; full length, 156 residues, N-terminal His-tag, synthetic gene in pET28a(+), E. coli BL21 (pLysS), Ni-NTA
T1 sequence (A0AA36P071 1-156): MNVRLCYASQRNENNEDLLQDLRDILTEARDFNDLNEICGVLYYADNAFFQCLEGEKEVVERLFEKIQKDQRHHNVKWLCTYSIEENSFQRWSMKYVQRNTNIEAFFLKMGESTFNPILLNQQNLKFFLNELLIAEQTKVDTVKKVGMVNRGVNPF
Kind of assay: UV-vis absorption and fluorescence emission of the co-purified flavin. The conditions noted are these: 20 mM Tris-HCl, 200 mM NaCl, pH 8.0, 15 °C; flavin as purified with the protein, fully oxidized; flavin identity assigned by the authors, no separate analysis. The class given is binding.

Assay [2] concerns the target T2, AnBLUF46 (Acinetobacter nosocomialis, UniProt A0AA36NWK2).
T2 construct: gene ANICBIBUN_11750; full length, 147 residues, N-terminal His-tag, pET28-TEV, E. coli BL21 (pLysS), Ni-NTA; tag cleavage not mentioned
T2 sequence (A0AA36NWK2 1-147): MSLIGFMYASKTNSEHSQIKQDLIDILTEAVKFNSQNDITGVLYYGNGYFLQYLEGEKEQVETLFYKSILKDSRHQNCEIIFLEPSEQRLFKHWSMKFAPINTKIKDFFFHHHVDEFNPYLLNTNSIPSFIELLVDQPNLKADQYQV
The assay is described as above. It is filed as binding. Particulars: 20 mM Tris-HCl, 200 mM NaCl, pH 8.0, 15 °C; flavin as purified with the protein, fully oxidized; flavin identity assigned by the authors, no separate analysis.

Each structure is given as a SMILES string.

For the molecule `Cc1cc2nc3c(=O)[nH]c(=O)nc-3n(C[C@H](O)[C@H](O)[C@H](O)COP(=O)(O)OP(=O)(O)OC[C@H]3O[C@@H](n4cnc5c(N)ncnc54)[C@H](O)[C@@H]3O)c2cc1C` [FAD], the “UV-vis absorption and fluorescence emission of the co-purified flavin” value in assay [1] and in assay [2] was “blue-shifted compared with free FAD in the same working buffer” in each case.
